Measured values reported in US9849190B2, “Peptide having cancer selective translocation function and use thereof” (SNU R&DB FOUNDATION, priority 2012, dated 2017).

Experiments:
[1] = test system: tumor cell line (MDA-MB-231, ATCC); test: Tumor cell penetration of fluorescent-labelled peptides (FACS, confocal microscopy); type: cell-based; conditions: for fluorescence of the tumor cells measured by FACS: MDA-MB-231, 60 minutes after inoculation, various peptide concentrations, FIG. 1A; for ability to penetrate the tumor cell line, confocal laser scanning microscope: MDA-MB-231, various peptide concentrations, FIG. 1B
Protocol: In order to test the tumor cell-targeting and tumor cell-penetrating abilities of the VPTD peptide of SEQ ID NO: 1 and the HPTD peptide of […], prepared in Example 1, the termini of the prepared peptides were labeled with a fluorescent dye, and then each of the peptides was inoculated into a tumor cell line (MDA-MB-231, ATCC) at various concentrations.
60 minutes after the inoculation, the fluorescence of the cells was measured by FACS, and the results of the measurement are shown in FIGS. 1A and 1B.

VEGF = test: Slot-blot analysis of binding to VEGF; conditions: FIG. 2
Excerpt: (§1) This is believed to be because the tumor-penetrating ability of the VPTD peptide of the present invention was maximized in the tumor tissue and the VPTD peptide did bind specifically to VEGF to inhibit vascular formation essential for the formation and progression of tumors. […] As a result, it could be seen that the VPTD peptide and the HPTD peptide did all bind to VEGF and heparin, which are overexpressed in tumor cells or tumor tissue.

[2] = Slot-blot analysis of binding to heparin; conditions: FIG. 2
Excerpt: as §1

tumor induced in mice = test: Tumor inhibitory effect in tumor-induced mice; type: in vivo; conditions: injected, volume measured every 3-4 days for 30 days, versus control, FIG. 3
Protocol: In order to test the effects of the VPTD peptide of SEQ ID NO: 1 (VSRRRRRRGGRRRR) and the HPTD peptide of SEQ ID NO: (CSSRKKNPNCRRH), prepared in Example 1, and the tumor-targeting and tumor-penetrating peptide-drug conjugates prepared in Example 2, a tumor was induced in mice, and when the tumor grew to a predetermined size, each of the peptides prepared in Example 1 and the tumor-targeting and tumor-penetrating peptide-drug conjugates prepared in Example 2 was injected into the mice. After injection, the volume of the tumor was measured at intervals of 3-4 days for 30 days. On day 30, the mice were sacrificed, and the tumor was extracted and photographed.
as §1

| binding to VEGF (VEGF) | binding to heparin [2] | Sequence | fluorescence of the tumor cells measured by FACS [1] | ability to penetrate the tumor cell line, confocal laser scanning microscope [1] | progression of the tumor (tumor volume) (tumor induced in mice) |
| --- | --- | --- | --- | --- | --- |
| did all bind | did all bind | CSSRKKNPNCRRH (HPTD) [HPTD peptide] | increased in a manner dependent on the concentration of the peptide | increased in a manner dependent on the concentration of the peptide |  |
| did all bind | did all bind | VSRRRRRRGGRRRR (VPTD) [VPTD peptide] | increased in a manner dependent on the concentration of the peptide | increased in a manner dependent on the concentration of the peptide | significantly inhibited |
